Test results from ChEMBL document CHEMBL3046305, “Insecticidal and repellent action of allyl esters against Acyrthosiphon pisum (Hemiptera: Aphididae) and Tribolium castaneum (Coleoptera: Tenebrionidae)” (2013).
≈ marks a conversion by molar mass, not a printed value. Calls of active or inactive are those of the source. The rule behind the calls is not given here.

What was measured:
Tribolium castaneum [1] = assay: Insecticidal activity against Tribolium castaneum (red flour beetle) Herbst assessed as mortality treated topically at 0.24 mg/insect measured per insect after 24 hr; format: functional
Acyrthosiphon pisum [2] = assay: Insecticidal activity against Acyrthosiphon pisum (pea aphid) assessed as mortality treated topically at 30 ug/insect measured after 24 hr; format: functional
Tribolium castaneum [3] = assay: Repellent effect in Tribolium castaneum (red flour beetle) at 10 ug/cm'2 measured after 4 hr; format: functional
Tribolium castaneum [4] = assay: Insecticidal activity against Tribolium castaneum (red flour beetle) assessed as mortality treated topically measured per insect after 24 hr; format: functional
Acyrthosiphon pisum [5] = assay: Insecticidal activity against Acyrthosiphon pisum (pea aphid) treated artificial diet with compound assessed as mortality at 0.1 mg/ml after 1 day; format: functional, organism-based
Acyrthosiphon pisum [6] = assay: Repellent effect in Acyrthosiphon pisum (pea aphid) at 0.1 ug/cm'2; format: functional, organism-based
Tribolium castaneum [7] = assay: Insecticidal activity against Tribolium castaneum (red flour beetle) assessed as mortality at 0.25 mg/insect; format: functional
Acyrthosiphon pisum [8] = assay: Insecticidal activity against Acyrthosiphon pisum (pea aphid) treated artificial diet with compound for 3 days assessed as mortality; format: functional; conditions: for LC50: Acyrthosiphon pisum, 72 h
Acyrthosiphon pisum [9] = assay: Insecticidal activity against Acyrthosiphon pisum (pea aphid) treated artificial diet with compound assessed as mortality at 0.7 mg/ml after 3 days; format: functional; conditions: 72 h
Acyrthosiphon pisum [10] = assay: Insecticidal activity against Acyrthosiphon pisum (pea aphid) treated artificial diet with compound assessed as mortality at 0.7 mg/ml after 1 day; format: functional; conditions: 24 h
Acyrthosiphon pisum [11] = assay: Repellent effect in Acyrthosiphon pisum (pea aphid) at 10 ug/cm'2; format: functional
Tribolium castaneum [12] = assay: Repellent effect in Tribolium castaneum (red flour beetle) at 0.1 ug/cm'2 measured after 8 hr; format: functional, organism-based
Tribolium castaneum [13] = assay: Repellent effect in Tribolium castaneum (red flour beetle) at 10 ug/cm'2 measured after 24 hr; format: functional

Structure (SMILES)	mortality (Tribolium castaneum [1]) [%]	mortality (Acyrthosiphon pisum [2])	Activity (Tribolium castaneum [3])	LC90 (Tribolium castaneum [4]) [mg]	mortality (Acyrthosiphon pisum [5])	Activity (Acyrthosiphon pisum [6])	LT50 (Tribolium castaneum [7]) [h]	LC90 (Acyrthosiphon pisum [8]) [µg/mL]	mortality at 700 µg/mL (Acyrthosiphon pisum [9]) [%]	mortality at 700 µg/mL (Acyrthosiphon pisum [10]) [%]	LC50 (Acyrthosiphon pisum [8]) [µg/mL]	LC50 (Tribolium castaneum [4]) [mg]	Repellency (Tribolium castaneum [3]) [%]	Repellency (Acyrthosiphon pisum [11]) [%]	Activity (Tribolium castaneum [12])	Repellency (Tribolium castaneum [13]) [%]
C=CCOC(=O)CCCCC [ALLYL HEXANOATE]	45	inactive	inactive	0.3	inactive	inactive										
C=CCOC(=O)CCCCCC [ALLYL HEPTANOATE]	45	inactive		0.32	inactive	inactive	<2	1160 (≈ 6810 µM)	72	53						
C=CCOC(=O)c1ccco1 [ALLYL 2-FUROATE]	45	inactive		0.46	inactive	inactive		2900 (≈ 19100 µM)	68	52	210 (≈ 1380 µM)	0.2				
C=CCOC(=O)/C=C/c1ccccc1 [ALLYL CINNAMATE]	45	75%		0.28	inactive		<2	180 (≈ 956 µM)	100	86	30 (≈ 159 µM)	0.2	80	34	Active	
CCN(CC)C(=O)c1cccc(C)c1 [DIETHYLTOLUAMIDE]													60	50		84
C=CCOC(=O)CCCCCCC [ALLYL OCTANOATE]	45	inactive		0.16	inactive	inactive						0.1				
